Measurements reported in patent US20030157174A1, “Enteric granular preparations of hardly water soluble drugs characterized by containing water-repellent component” (priority 2002, published 2003).
Values after ≈ are worked out from the molar mass of the structure shown.

Test: Solubilities of Compound A to several test solutions
Assay type: physicochemical
Excerpt: Compound A was used as an insoluble active ingredient in the following references and examples.

For CC1(C)[C@H]2C[C@H](C/C=C\CCCC(=O)O)[C@@H](NC(=O)c3csc4ccc(O)cc34)[C@@H]1C2 [Compound A, (Z)-7-[(1R,2R,3S,5S)-2-(5-hydroxybenzo[b]thiophen-3-ylcarbonylamino)-10-norpinan-3-yl]-5-heptenoic acid], the “Final pH” value (test solution JP-1 Sol.) was 1.15, the “Final pH” value (test solution JP-2 Sol.) was 6.84 and the “Solubility 3 hours” value (test solution JP-2 Sol.) was 81.08 µg/mL (≈ 184 µM). The “Solubility 6 hours” value (test solution JP-2 Sol.) was 81.65 µg/mL (≈ 185 µM), the “Final pH” value (test solution Water) was 5.81 and the “Solubility 3 hours” value (test solution Water) was 5.56 µg/mL (≈ 12.6 µM). For the same molecule, the “Solubility 6 hours” value (test solution Water) was 5.93 µg/mL (≈ 13.4 µM), the “Final pH” value (test solution pH4.0) was 4.07 and the “Final pH” value (test solution pH6.0) was 6.08. The “Solubility 3 hours” value (test solution pH6.0) was 15.19 µg/mL (≈ 34.4 µM), the “Solubility 6 hours” value (test solution pH6.0) was 15.57 µg/mL (≈ 35.3 µM) and the “Final pH” value (test solution pH7.8) was 7.6. The “Solubility 3 hours” value (test solution pH7.8) was 487.87 µg/mL (≈ 1100 µM), the “Solubility 6 hours” value (test solution pH7.8) was 489.05 µg/mL (≈ 1110 µM) and the “Final pH” value (test solution pH8.0) was 7.76. For the same molecule, the “Solubility 3 hours” value (test solution pH8.0) was 652.56 µg/mL (≈ 1480 µM), the “Solubility 6 hours” value (test solution pH8.0) was 675.55 µg/mL (≈ 1530 µM) and the “Final pH” value (test solution pH8.5) was 8.29. For the same molecule, the “Solubility 3 hours” value (test solution pH8.5) was 6197.64 µg/mL (≈ 14000 µM) and the “Solubility 6 hours” value (test solution pH8.5) was 6224.39 µg/mL (≈ 14100 µM).
